Experimental data taken from ChEMBL document CHEMBL4184210, “Optimization of novel monobactams with activity against carbapenem-resistant Enterobacteriaceae - Identification of LYS228” (Bioorg Med Chem Lett, 2018).
Values after ≈ are worked out from the molar mass of the structure shown.

How the values were obtained:
Escherichia coli [1] = assay: microbe, parasite or virus in culture
Description: Antimicrobial activity against Escherichia coli expressing beta-lactamase DHA by CLSI broth microdilution method

Escherichia coli [2] = assay: microbe, parasite or virus in culture; remark: listed apart in the source
Description: Antimicrobial activity against Escherichia coli expressing beta-lactamase Oxa-18 by CLSI broth microdilution method

Enterobacteriaceae = assay: Antimicrobial activity against ESBL, KPC and MBL producing Enterobacteriaceae by CLSI broth microdilution method; type: functional
Escherichia coli [3] = assay: microbe, parasite or virus in culture; remark: listed apart in the source
Description: Antimicrobial activity against Escherichia coli expressing beta-lactamase Oxa-23 by CLSI broth microdilution method

Escherichia coli [4] = assay: microbe, parasite or virus in culture; remark: listed apart in the source
Description: Antimicrobial activity against Escherichia coli expressing beta-lactamase VIM-1 by CLSI broth microdilution method

Escherichia coli [5] = assay: microbe, parasite or virus in culture; remark: listed apart in the source
Description: Antimicrobial activity against Escherichia coli expressing beta-lactamase SME-1 by CLSI broth microdilution method

Escherichia coli [6] = assay: Antimicrobial activity against Escherichia coli expressing beta-lactamase NDM-5 by CLSI broth microdilution method; type: functional
Escherichia coli [7] = assay: microbe, parasite or virus in culture; remark: listed apart in the source
Description: Antimicrobial activity against Escherichia coli expressing beta-lactamase PER-4 by CLSI broth microdilution method

Escherichia coli [8] = assay: microbe, parasite or virus in culture; remark: listed apart in the source
Description: Antimicrobial activity against Escherichia coli expressing beta-lactamase KPC-8 by CLSI broth microdilution method

Escherichia coli [9] = assay: microbe, parasite or virus in culture; remark: listed apart in the source
Description: Antimicrobial activity against Escherichia coli expressing beta-lactamase TEM-16 by CLSI broth microdilution method

Escherichia coli [10] = assay: microbe, parasite or virus in culture; remark: listed apart in the source
Description: Antimicrobial activity against Escherichia coli expressing beta-lactamase IMI-1 by CLSI broth microdilution method

Escherichia coli [11] = assay: Antimicrobial activity against Escherichia coli expressing beta-lactamase TEM-1 by CLSI broth microdilution method; type: functional
Escherichia coli [12] = assay: microbe, parasite or virus in culture; remark: listed apart in the source
Description: Antimicrobial activity against Escherichia coli expressing beta-lactamase NMC-A by CLSI broth microdilution method

Escherichia coli [13] = assay: microbe, parasite or virus in culture; remark: listed apart in the source
Description: Antimicrobial activity against Escherichia coli expressing beta-lactamase TEM-10 by CLSI broth microdilution method

Escherichia coli [14] = assay: microbe, parasite or virus in culture; remark: listed apart in the source
Description: Antimicrobial activity against Escherichia coli expressing beta-lactamase Oxa-181 by CLSI broth microdilution method

Escherichia coli [15] = assay: microbe, parasite or virus in culture; remark: listed apart in the source
Description: Antimicrobial activity against Escherichia coli expressing beta-lactamase P99 by CLSI broth microdilution method

Escherichia coli [16] = assay: microbe, parasite or virus in culture; remark: listed apart in the source
Description: Antimicrobial activity against Escherichia coli expressing beta-lactamase KPC-3 by CLSI broth microdilution method

Escherichia coli [17] = assay: microbe, parasite or virus in culture; remark: listed apart in the source
Description: Antimicrobial activity against Escherichia coli expressing beta-lactamase GIM-1 by CLSI broth microdilution method

Escherichia coli [18] = assay: microbe, parasite or virus in culture; remark: listed apart in the source
Description: Antimicrobial activity against Escherichia coli expressing beta-lactamase SHV-12 by CLSI broth microdilution method

Pseudomonas aeruginosa = assay: Antimicrobial activity against Pseudomonas aeruginosa expressing nalB/delta-mexXY/delta-mexCDoprJ/delta-ampC by CLSI broth microdilution method; type: functional
Escherichia coli [19] = assay: Antimicrobial activity against Escherichia coli expressing beta-lactamase VEB-1 by CLSI broth microdilution method; type: functional
Mus musculus = assay: Toxicity in CD1 mouse assessed as induction of convulsion at 100 mg/kg, icv measured 1 hr after post dose; type: organism-based; conditions: in vivo, icv_or_intrathecal
[20] = Half life in rat at 10 mg/kg, iv; type: ADME, organism-based; conditions: in vivo
[21] = Half life in mouse at 10 mg/kg, iv; type: ADME, organism-based; conditions: in vivo
in vitro [22] = conditions: mouse, plasma
Description: Protein binding in mouse plasma

[23] = Volume of distribution in dog at 10 mg/kg, iv; type: ADME, organism-based, Canis lupus familiaris; conditions: in vivo
[24] = Clearance in dog at 10 mg/kg, iv; type: ADME, organism-based, Canis lupus familiaris; conditions: in vivo
[25] = Stability assessed as assessed as Escherichia coli beta-lactamase KPC-2-mediated compound hydrolysis by measuring molar enthalpy of hydrolysis at 1 mM by isothermal titration calorimetry; type: ADME; conditions: 1000 µM
in vitro [26] = conditions: human, plasma
Description: Protein binding in human plasma

[27] = AUC in rat at 10 mg/kg, iv; type: ADME, organism-based; conditions: in vivo
Klebsiella pneumoniae [28] = assay: Antimicrobial activity against Klebsiella pneumoniae expressing beta-lactamase NDM-1 by CLSI broth microdilution method; type: functional
[29] = Half life in dog at 10 mg/kg, iv; type: ADME, organism-based, Canis lupus familiaris; conditions: in vivo
[30] = AUC in dog at 10 mg/kg, iv; type: ADME, organism-based, Canis lupus familiaris; conditions: in vivo
[31] = Volume of distribution in mouse at 10 mg/kg, iv; type: ADME, organism-based; conditions: in vivo
[32] = Drug excretion in dog assessed as unchanged parent drug level at 10 mg/kg, iv; type: ADME, organism-based, Canis lupus familiaris; conditions: in vivo, read-out: Drug excretion
[33] = AUC in mouse at 10 mg/kg, iv; type: ADME, organism-based; conditions: in vivo
Klebsiella pneumoniae [34] = assay: Antimicrobial activity against Klebsiella pneumoniae expressing beta-lactamase NDM-1 infected in neutropenic mouse thigh infection model assessed as compound dose causing 1 log10 CFU reduction in bacterial load dosed subcutaneously every 4 hrs; type: functional
[35] = Volume of distribution in rat at 10 mg/kg, iv; type: ADME, organism-based; conditions: in vivo
in vitro [36] = conditions: rat, plasma
Description: Protein binding in rat plasma

Klebsiella pneumoniae [37] = assay: Antimicrobial activity against Klebsiella pneumoniae expressing beta-lactamase NDM-1 infected in neutropenic mouse thigh infection model assessed as fT>MIC for causing 1 log10 CFU reduction in bacterial load dosed subcutaneously every 4 hrs; type: functional
[38] = Clearance in mouse at 10 mg/kg, iv; type: ADME, organism-based; conditions: in vivo
in vitro [39] = conditions: dog, plasma
Description: Protein binding in dog plasma

[40] = Drug excretion in rat assessed as unchanged parent drug level at 10 mg/kg, iv; type: ADME, organism-based; conditions: in vivo, read-out: Drug excretion
[41] = Clearance in rat at 10 mg/kg, iv; type: ADME, organism-based; conditions: in vivo

With N=C(N)NCc1cnn(C[C@@H]2[C@H](NC(=O)/C(=N\OC3(C(=O)O)CC3)c3csc(N)n3)C(=O)N2S(=O)(=O)O)n1 (stereo in doubt) the MIC (Escherichia coli [1]) was 8 µg/mL (≈ 14 µM), the MIC (Escherichia coli [2]) was 0.5 µg/mL (≈ 0.875 µM) and the MIC90 (Enterobacteriaceae) was 4 µg/mL (≈ 7 µM). It also gave an MIC (Escherichia coli [3]) of 0.25 µg/mL (≈ 0.437 µM), an MIC (Escherichia coli [4]) of 0.06 µg/mL (≈ 0.105 µM) and an MIC (Escherichia coli [5]) of 0.06 µg/mL (≈ 0.105 µM). The MIC (Escherichia coli [6]) was 0.25 µg/mL (≈ 0.437 µM), the MIC (Escherichia coli [7]) was 4 µg/mL (≈ 7 µM) and the MIC (Escherichia coli [8]) was 1 µg/mL (≈ 1.75 µM). It also gave an MIC (Escherichia coli [9]) of 0.5 µg/mL (≈ 0.875 µM), an MIC (Escherichia coli [10]) of 0.06 µg/mL (≈ 0.105 µM) and an MIC (Escherichia coli [11]) of 0.125 µg/mL (≈ 0.219 µM). For the same compound, the MIC (Escherichia coli [12]) was 0.125 µg/mL (≈ 0.219 µM), the MIC (Escherichia coli [13]) was 1 µg/mL (≈ 1.75 µM) and the MIC (Escherichia coli [14]) was 0.125 µg/mL (≈ 0.219 µM). For the same compound, the MIC (Escherichia coli [15]) was 0.25 µg/mL (≈ 0.437 µM), the MIC (Escherichia coli [16]) was 0.125 µg/mL (≈ 0.219 µM) and the MIC (Escherichia coli [17]) was 0.125 µg/mL (≈ 0.219 µM). For the same compound, the MIC (Escherichia coli [18]) was 0.25 µg/mL (≈ 0.437 µM), the MIC (Pseudomonas aeruginosa) was 16 µg/mL (≈ 28 µM) and the MIC (Escherichia coli [19]) was 16 µg/mL (≈ 28 µM).
NC[C@@H]1CN(C[C@@H]2[C@H](NC(=O)/C(=N\OC3(C(=O)O)CC3)c3csc(N)n3)C(=O)N2S(=O)(=O)O)C(=O)O1 (stereo in doubt) gave an MIC (Escherichia coli [1]) of 0.25 µg/mL (≈ 0.457 µM), an MIC (Escherichia coli [2]) of 0.5 µg/mL (≈ 0.913 µM) and an MIC90 (Enterobacteriaceae) of 1 µg/mL (≈ 1.83 µM). The MIC (Escherichia coli [3]) was ≤ 0.06 µg/mL, the MIC (Escherichia coli [4]) was 0.06 µg/mL (≈ 0.11 µM) and the MIC (Escherichia coli [5]) was 0.06 µg/mL (≈ 0.11 µM). The MIC (Escherichia coli [6]) was 0.25 µg/mL (≈ 0.457 µM), the MIC (Escherichia coli [7]) was > 32 µg/mL and the MIC (Escherichia coli [8]) was 1 µg/mL (≈ 1.83 µM). For the same compound, the MIC (Escherichia coli [9]) was 0.125 µg/mL (≈ 0.228 µM), the MIC (Escherichia coli [10]) was 0.125 µg/mL (≈ 0.228 µM) and the Activity (Mus musculus) was “Toxic”. For the same compound, the MIC (Escherichia coli [11]) was 0.125 µg/mL (≈ 0.228 µM), the MIC (Escherichia coli [12]) was 0.125 µg/mL (≈ 0.228 µM) and the MIC (Escherichia coli [13]) was 1 µg/mL (≈ 1.83 µM). For the same compound, the MIC (Escherichia coli [14]) was 0.25 µg/mL (≈ 0.457 µM), the MIC (Escherichia coli [15]) was 0.125 µg/mL (≈ 0.228 µM) and the MIC (Escherichia coli [16]) was 0.125 µg/mL (≈ 0.228 µM). For the same compound, the MIC (Escherichia coli [17]) was 0.03 µg/mL (≈ 0.0548 µM), the MIC (Escherichia coli [18]) was 0.25 µg/mL (≈ 0.457 µM) and the MIC (Pseudomonas aeruginosa) was > 64 µg/mL. It also gave an MIC (Escherichia coli [19]) of 32 µg/mL (≈ 58.4 µM).
N=C(N)NCc1cn(C[C@@H]2[C@H](NC(=O)/C(=N\OC3(C(=O)O)CC3)c3csc(N)n3)C(=O)N2S(=O)(=O)O)nn1 (stereo in doubt) gave an MIC (Escherichia coli [1]) of 4 µg/mL (≈ 7 µM), an MIC (Escherichia coli [2]) of 1 µg/mL (≈ 1.75 µM) and an MIC90 (Enterobacteriaceae) of 2 µg/mL (≈ 3.5 µM). The MIC (Escherichia coli [3]) was 0.25 µg/mL (≈ 0.437 µM), the MIC (Escherichia coli [4]) was 0.125 µg/mL (≈ 0.219 µM) and the MIC (Escherichia coli [5]) was 0.06 µg/mL (≈ 0.105 µM). The MIC (Escherichia coli [6]) was 0.25 µg/mL (≈ 0.437 µM), the MIC (Escherichia coli [7]) was 8 µg/mL (≈ 14 µM) and the MIC (Escherichia coli [8]) was 1 µg/mL (≈ 1.75 µM). It also gave an MIC (Escherichia coli [9]) of 0.25 µg/mL (≈ 0.437 µM), an MIC (Escherichia coli [10]) of 0.06 µg/mL (≈ 0.105 µM) and an MIC (Escherichia coli [11]) of 0.125 µg/mL (≈ 0.219 µM). It also gave an MIC (Escherichia coli [12]) of 0.125 µg/mL (≈ 0.219 µM), an MIC (Escherichia coli [13]) of 0.5 µg/mL (≈ 0.875 µM) and an MIC (Escherichia coli [14]) of 0.25 µg/mL (≈ 0.437 µM). It also gave an MIC (Escherichia coli [15]) of 0.25 µg/mL (≈ 0.437 µM), an MIC (Escherichia coli [16]) of 0.125 µg/mL (≈ 0.219 µM) and an MIC (Escherichia coli [17]) of 0.03 µg/mL (≈ 0.0525 µM). The MIC (Escherichia coli [18]) was 0.5 µg/mL (≈ 0.875 µM) and the MIC (Escherichia coli [19]) was 16 µg/mL (≈ 28 µM).
Compound Nc1nc(/C(=N/OC2(C(=O)O)CC2)C(=O)N[C@@H]2C(=O)N(S(=O)(=O)O)[C@@H]2CN2CCOC2=O)cs1 (stereo in doubt) [ANCREMONAM] has an MIC (Escherichia coli [1]) of 0.5 µg/mL (≈ 0.964 µM), a half-life [20] of 36 min and a half-life [21] of 18 min. It also gave a fraction unbound (in vitro [22]) of 0.74, a Vd [23] of 0.2 L/kg and a clearance [24] of 4 mL/min/kg. For the same compound, the MIC (Escherichia coli [2]) was 0.5 µg/mL (≈ 0.964 µM), the Stability [25] was “Stable” and the MIC90 (Enterobacteriaceae) was 2 µg/mL (≈ 3.86 µM). It also gave a fraction unbound (in vitro [26]) of 0.87, an AUC [27] of 19000 ng·h/mL and an MIC (Escherichia coli [3]) of 0.125 µg/mL (≈ 0.241 µM). It also gave an MIC (Klebsiella pneumoniae [28]) of 1 µg/mL (≈ 1.93 µM), an MIC (Escherichia coli [4]) of 0.125 µg/mL (≈ 0.241 µM) and an MIC (Escherichia coli [5]) of 0.125 µg/mL (≈ 0.241 µM). The half-life [29] was 48 min, the MIC (Escherichia coli [6]) was 0.125 µg/mL (≈ 0.241 µM) and the MIC (Escherichia coli [7]) was 8 µg/mL (≈ 15.4 µM). The MIC (Escherichia coli [8]) was 0.125 µg/mL (≈ 0.241 µM), the AUC [30] was 13000 ng·h/mL and the Vd [31] was 0.3 L/kg. The MIC (Escherichia coli [9]) was 0.25 µg/mL (≈ 0.482 µM), the MIC (Escherichia coli [10]) was 0.125 µg/mL (≈ 0.241 µM) and the Activity (Mus musculus) was “Non-Toxic”. It also gave an MIC (Escherichia coli [11]) of 0.25 µg/mL (≈ 0.482 µM), a dose excreted [32] of 34% and an AUC [33] of 10000 ng·h/mL. For the same compound, the MIC (Escherichia coli [12]) was 0.125 µg/mL (≈ 0.241 µM), the MIC (Escherichia coli [13]) was 1 µg/mL (≈ 1.93 µM) and the Activity (Klebsiella pneumoniae [34]) was 1590 mg/kg/day. The MIC (Escherichia coli [14]) was 0.125 µg/mL (≈ 0.241 µM), the MIC (Escherichia coli [15]) was 0.25 µg/mL (≈ 0.482 µM) and the MIC (Escherichia coli [16]) was 0.25 µg/mL (≈ 0.482 µM). It also gave a Vd [35] of 0.3 L/kg, an MIC (Escherichia coli [17]) of 0.125 µg/mL (≈ 0.241 µM) and a fraction unbound (in vitro [36]) of 0.53. The MIC (Escherichia coli [18]) was 0.5 µg/mL (≈ 0.964 µM), the “fT>MIC” value (Klebsiella pneumoniae [37]) was 65% and the clearance [38] was 16 mL/min/kg. The fraction unbound (in vitro [39]) was 0.76, the MIC (Pseudomonas aeruginosa) was ≥ 64 µg/mL and the dose excreted [40] was 30%. The MIC (Escherichia coli [19]) was 32 µg/mL (≈ 61.7 µM) and the clearance [41] was 9 mL/min/kg.
